ChEMBL document CHEMBL4145534, “Computer-aided insights into receptor-ligand interaction for novel 5-arylhydantoin derivatives as serotonin 5-HT7 receptor agents with antidepressant activity” (Eur J Med Chem, 2018)

Experiments:
Type in all cases: functional
[1] = test system: Mus musculus; experiment: Antidepressant like activity in Swiss albino mouse assessed as immobility time at 10 mg/kg, ip administered 30 mins prior to test and measured last 4 mins of 6 mins test by forced swimming test (reference value: 162.71 +/- 6.8 secs)
[2] = test system: Mus musculus; experiment: Antidepressant like activity in Swiss albino mouse assessed as immobility time at 5 mg/kg, ip administered 30 mins prior to test and measured last 4 mins of 6 mins test by forced swimming test (reference value: 162.71 +/- 6.8 secs)
[3] = test system: Mus musculus; experiment: Antidepressant like activity in Swiss albino mouse assessed as immobility time at 20 mg/kg, ip administered 30 mins prior to test and measured last 4 mins of 6 mins test by forced swimming test (reference value: 162.71 +/- 6.8 secs)

CN(C)CCCN1c2ccccc2CCc2ccccc21 [IMIPRAMINE]
Time [1]: 119.63 s
Time [2]: 170.42 s
Time [3]: 77.81 s
